Data from the NIST ThermoML archive (doi:10.1021/acs.jced.8b00008).

Test: xn = mol fraction of the nth substance listed
Settings: for surface tension liquid-gas: 293 K, Pendant drop shape; for viscosity / speed of sound / mass density: 102 kPa, Liquid; for viscosity: Concentric cylinders viscometry; for speed of sound: Single path-length method; for mass density: Vibrating tube method

CCCCCCCCCCCCCCCC [hexadecane] + CC1CCCCC1
Settings	surface tension liquid-gas [mN/m]
x2 = 0.1018	26.8
x2 = 0.2	26.7
x2 = 0.3	26.4
x2 = 0.4004	26.2
x2 = 0.4999	26
x2 = 0.6	25.5
x2 = 0.7	25.2
x2 = 0.8	24.7
x2 = 0.9	24.3

Settings	mass density, 293.15 K [kg/m3]	mass density, 298.15 K [kg/m3]	mass density, 303.15 K [kg/m3]	speed of sound, 293.15 K [m/s]	speed of sound, 298.15 K [m/s]	speed of sound, 303.15 K [m/s]	viscosity, 293.15 K [mPa·s]	viscosity, 298.15 K [mPa·s]	viscosity, 303.15 K [mPa·s]
x2 = 0.1018	773	769.51	766.03	1350.5	1331.5	1312.7	3.14	2.81	2.52
x2 = 0.2	772.68	769.17	765.67	1343.5	1324.6	1306	2.83	2.54	2.29
x2 = 0.3	772.21	768.68	765.15	1334.5	1315.4	1296.5	2.54	2.29	2.08
x2 = 0.4004	771.85	768.28	764.7	1325.6	1306.5	1287.5	2.24	2.03	1.85
x2 = 0.4999	771.43	767.82	–	1316.2	1297.4	1278.4	1.96	1.79	1.65
x2 = 0.6	770.99	767.29	–	1303.5	1284.3	1265	1.68	1.54	1.43
x2 = 0.7	770.52	766.75	–	1289.9	1270.5	1250.9	1.42	1.31	1.22
x2 = 0.8	770.06	766.16	–	1274.4	1254.1	1233.9	1.174	1.084	1.012
x2 = 0.9	769.64	765.56	–	1256.8	1236	1215.2	0.943	0.892	0.82
